Test results as given in ChEMBL document CHEMBL4002565, “Synthesis, biological evaluation and in silico molecular modeling of pyrrolyl benzohydrazide derivatives as enoyl ACP reductase inhibitors” (Eur J Med Chem, 2017).
Values after ≈ are worked out from the molar mass of the structure shown.

Tests used:
[1] = test system: Mycobacterium tuberculosis; experiment: Antitubercular activity against Mycobacterium tuberculosis H37Rv after 5 days by microplate Alamar blue assay; type: functional; settings: 120 h
[2] = test system: Staphylococcus aureus; experiment: Antibacterial activity against Staphylococcus aureus after 18 hrs by broth microdilution method; type: functional
[3] = test system: Escherichia coli; experiment: Antibacterial activity against Escherichia coli after 18 hrs by broth microdilution method; type: functional
[4] = test system: A549; experiment: Cytotoxicity against human A549 cells by MTT assay; type: cell-based
[5] = test system: Mycobacterium tuberculosis; experiment: Inhibition of Mycobacterium tuberculosis His6-tagged wild type InhA expressed in Escherichia coli BL21 at 50 uM using DDCoA as substrate relative to control

| SMILES | MIC [1] [µg/mL] | MIC [2] [µg/mL] | MIC [3] [µg/mL] | IC50 [4] [µM] | inhibition [5] [%] |
| --- | --- | --- | --- | --- | --- |
| O=C(NNC(=O)c1ccc(Cl)cc1Cl)c1ccc(-n2cccc2)cc1 | 3.12 (≈ 8.35 µM) | 12.5 (≈ 33.4 µM) | 3.12 (≈ 8.35 µM) |  |  |
| O=C(NNC(=O)c1ccc([N+](=O)[O-])cc1)c1ccc(-n2cccc2)cc1 | 12.5 (≈ 35.7 µM) | 25 (≈ 71.4 µM) | 12.5 (≈ 35.7 µM) | 96 | 22 |
| O=C(NNC(=O)c1cccc(Cl)c1)c1ccc(-n2cccc2)cc1 | 6.25 (≈ 18.4 µM) | 12.5 (≈ 36.8 µM) | 3.12 (≈ 9.2 µM) |  |  |
| O=C(NNC(=O)c1ccc(-n2cccc2)cc1)c1ccc(Br)cc1 | 3.12 (≈ 8.13 µM) | 6.25 (≈ 16.3 µM) | 3.12 (≈ 8.13 µM) | 40.2 | 38 |
| O=C(NNC(=O)c1ccc(-n2cccc2)cc1)c1ccc(F)cc1 | 6.25 (≈ 19.3 µM) | 6.25 (≈ 19.3 µM) | 3.12 (≈ 9.67 µM) | 194 | 35 |
| O=C(O)c1cn(C2CC2)c2cc(N3CCNCC3)c(F)cc2c1=O [CIPROFLOXACIN] |  | 0.15 (≈ 0.453 µM) |  |  |  |
| CC(=O)c1cccc(C(=O)NNC(=O)c2ccc(-n3cccc3)cc2)c1 | 12.5 (≈ 36 µM) | 25 (≈ 72 µM) | 12.5 (≈ 36 µM) | 79.2 | 31 |
| Nc1ccc(C(=O)NNC(=O)c2ccc(-n3cccc3)cc2)cc1 | 12.5 (≈ 39 µM) | 25 (≈ 78 µM) | 12.5 (≈ 39 µM) |  |  |
| O=C(NNC(=O)c1ccccc1Br)c1ccc(-n2cccc2)cc1 | 3.12 (≈ 8.13 µM) | 6.25 (≈ 16.3 µM) | 3.12 (≈ 8.13 µM) |  |  |
| CCn1cc(C(=O)O)c(=O)c2cc(F)c(N3CCNCC3)cc21 [NORFLOXACIN] |  | 2.02 (≈ 6.33 µM) | 4 (≈ 12.5 µM) |  |  |
| COc1ccc(C(=O)NNC(=O)c2ccc(-n3cccc3)cc2)cc1 | 12.5 (≈ 37.3 µM) | 25 (≈ 74.5 µM) | 25 (≈ 74.5 µM) | 244 | 13 |
| O=C(NNC(=O)c1ccc(-n2cccc2)cc1)c1ccc(Cl)cc1 | 3.12 (≈ 9.2 µM) | 6.25 (≈ 18.4 µM) | 3.12 (≈ 9.2 µM) | 40.2 | 36 |
| Cc1ccccc1C(=O)NNC(=O)c1ccc(-n2cccc2)cc1 | 12.5 (≈ 39.1 µM) | 25 (≈ 78.3 µM) | 12.5 (≈ 39.1 µM) | 196 | 12 |
| Nc1cccc(C(=O)NNC(=O)c2ccc(-n3cccc3)cc2)c1 | 25 (≈ 78 µM) | 50 (≈ 156 µM) | 25 (≈ 78 µM) |  |  |
| Cc1cccc(C(=O)NNC(=O)c2ccc(-n3cccc3)cc2)c1 | 12.5 (≈ 39.1 µM) | 50 (≈ 157 µM) | 12.5 (≈ 39.1 µM) | 196 | 29 |
| O=C(NNC(=O)c1ccc(-n2cccc2)cc1)c1ccc(O)cc1 | 12.5 (≈ 38.9 µM) | 25 (≈ 77.8 µM) | 12.5 (≈ 38.9 µM) | 96 | 29 |
| O=C(NNC(=O)c1ccc(-n2cccc2)cc1)c1ccccc1 | 50 (≈ 164 µM) | 50 (≈ 164 µM) | 25 (≈ 81.9 µM) | 248 | 13 |
| Cc1ccc(C(=O)NNC(=O)c2ccc(-n3cccc3)cc2)cc1 | 12.5 (≈ 39.1 µM) | 25 (≈ 78.3 µM) | 6.25 (≈ 19.6 µM) |  |  |
| Oc1cc(Cl)ccc1Oc1ccc(Cl)cc1Cl |  |  |  |  | > 99 |
| O=C(NNC(=O)c1cccc([N+](=O)[O-])c1)c1ccc(-n2cccc2)cc1 | 25 (≈ 71.4 µM) | 50 (≈ 143 µM) | 25 (≈ 71.4 µM) |  |  |
| CO[C@H]1/C=C/O[C@@]2(C)Oc3c(C)c(O)c4c(O)c(c(/C=N/N5CCN(C)CC5)c(O)c4c3C2=O)NC(=O)/C(C)=C\C=C\[C@H](C)[C@H](O)[C@@H](C)[C@@H](O)[C@@H](C)[C@H](OC(C)=O)[C@@H]1C [RIFAMPIN] | 0.4 (≈ 0.486 µM) |  |  |  |  |
| Nc1ccccc1C(=O)NNC(=O)c1ccc(-n2cccc2)cc1 | 12.5 (≈ 39 µM) | 25 (≈ 78 µM) | 12.5 (≈ 39 µM) |  |  |
| CC[C@@H](CO)NCCN[C@@H](CC)CO [ETHAMBUTOL] | 0.5 (≈ 2.45 µM) |  |  |  |  |
| O=C(NNC(=O)c1ccccc1Cl)c1ccc(-n2cccc2)cc1 | 3.12 (≈ 9.2 µM) | 12.5 (≈ 36.8 µM) | 6.25 (≈ 18.4 µM) |  |  |
